What was measured:
HS 578T = test: Cytotoxicity on breast cancer cell lines, assay similar to Example 3 (Example 4); details: Homo sapiens
Description: (§4) Day 1—Cell Seeding. […] Two duplicate plates were set up for day 0 reading (T0) and for reading at the end point (T48).
(§5) To generate a 10× working dilution plate of the small molecules, a 1:100 dilution was performed from the 1000× plate into the appropriate media.
(§6) Day 2—Compound Treatment. […] The plates were then incubated in a 37° C. humidity-controlled tissue culture incubator (5% CO2).
(§7) 20 μL culture medium containing 1% DMSO and 50 μL CellTiter-Glo® Reagent was added to each well of the TO plates and the contents mixed, plate was incubated at room temperature for 30 min, and read on an En Vision Multi Label Reader.
(§8) Day 4—Viability Measurements. 50 μL CellTiter-Glo® Reagent was added to each well of the T48 plates and the contents mixed, plate was incubated at room temperature for 30 min, and read on an EnVision Multi Label Reader. The formula for calculating percent survival is: % survival=(LumTest article−LumMedium control)/(LumNone treated−LumMedium control)×100%. Percent cytotoxicity was calculated by subtracting the % survival from 100.

HT-29 = test: CellTiter-Glo cell viability, 48 h (Example 1); assay type: cell-based; details: Homo sapiens
Description: (§1) Test Article Preparation for INBRX-109.
(§2) Day 2—Test and Control Article Addition.
(§3) Day 4—Viability Measurements. […] Data was graphed in GraphPad Prism 7.

LS411N = test: CellTiter-Glo cell viability, 48 h (Example 1); assay type: cell-based; details: Homo sapiens, LS-411N
Description: as §1, §2, §3

SNU-C2B = test: CellTiter-Glo cell viability, 48 h (Example 1); assay type: cell-based; details: Homo sapiens
Description: as §1, §2, §3

NCI-H2452 = test: Cytotoxicity on lung cancer cell lines, assay similar to Example 1 (Example 4); details: Homo sapiens
Description: (§9) Day 1-Cell Seeding. Monolayer cultures of each cell line were harvested for compound screening as detailed below. Culture medium was aspirated, and the cells were washed once with PBS. Accutase was added and flasks were incubated at 37° C. until cells became detached. An equal volume of complete medium was added to quench the Accutase, and the cells were then pipetted up and down several times to generate a homogenous single cell suspension. The density and viability of cells was determined by Trypan Blue using a TC20 Automated Cell Counter. Experimental cells were resuspended to a concentration of 0.17×10^6/mL in EMEM/10% FBS/Anti-Anti media (complete EMEM) and seeded in the inner wells of 384-well luminescence plates at 15 μL/well (2,500/well final). Each cell line was plated in duplicate on separate plates. […]
(§10) Day 4—Viability Measurements. […] Any visible bubbles were removed with 100% ethanol vapor, then luminescence (RLU) was read on the Spectra Max M5e plate reader, using the 384-well opaque plate setting and SoftMaxPro v5.4 software with an integration time of 50 milliseconds. To determine the effect of test articles on cell viability, raw RLU values were exported to Excel and percent survival was calculated as a percentage of vehicle control (0.2% DMSO in EMEM), where the vehicle control is set at 100%. […]

HCC1395 = test: Cytotoxicity on breast cancer cell lines, assay similar to Example 3 (Example 4); details: Homo sapiens
Description: as §4, §5, §6, §7, §8

AsPC-1 = test: Cytotoxicity on pancreatic cancer cell lines, assay similar to Example 1 (Example 4); details: Homo sapiens, ASPC1
Description: as §9
(§11) Day 4—Viability Measurements. […] Any visible bubbles were removed with 100% ethanol vapor, then luminescence (RLU) was read on the Spectra Max M5e plate reader, using the 384-well opaque plate setting and SoftMaxPro v5.4 software with an integration time of 50 milliseconds. To determine the effect of test articles on cell viability, raw RLU values were exported to Excel and percent survival was calculated as a percentage of vehicle control (0.2% DMSO in EMEM), where the vehicle control is set at 100%.

NCI-H23 = test: Cytotoxicity on lung cancer cell lines, assay similar to Example 1 (Example 4); details: Homo sapiens
Description: as §9, §10

NCI-H460 = test: as above; details: Homo sapiens
Description: as §9, §10

HCC1187 = test: Cytotoxicity on breast cancer cell lines, assay similar to Example 3 (Example 4); details: Homo sapiens
Description: (§12) Day 1—Cell Seeding. Monolayer cultures of each cancer cell line (see Table 7) were harvested during the logarithmic growth period. The density and viability of cells was determined by Trypan Blue using a Vi cell counter, cells were diluted in the appropriate growth media (see Table 7) and 90 μL cell suspensions were added to 96-well plates for compound screening as detailed below. Two duplicate plates were set up for day 0 reading (T0) and for reading at the end point (T48).
as §5, §6, §7
(§13) Day 4—Viability Measurements. 50 μL CellTiter-Glo® Reagent was added to each well of the T48 plates and the contents mixed, plate was incubated at room temperature for 30 min, and read on an EnVision Multi Label Reader. […] Percent cytotoxicity was calculated by subtracting the % survival from 100.

Panc-1 = test: Cytotoxicity on pancreatic cancer cell lines, assay similar to Example 1 (Example 4); details: Homo sapiens
Description: as §9, §11

DU4475 = test: Cytotoxicity on breast cancer cell lines, assay similar to Example 3 (Example 4); details: Homo sapiens, DU-4475
Description: as §12, §5, §6, §7, §13

CAL-78 = test: Cytotoxicity on chondrosarcoma cell lines, assay similar to Example 1 (Example 4)
Description: as §9, §10

MIA-PaCa-2 = test: Cytotoxicity on pancreatic cancer cell lines, assay similar to Example 1 (Example 4); details: Homo sapiens
Description: as §9, §10

CAL-120 = test: Cytotoxicity on breast cancer cell lines, assay similar to Example 3 (Example 4); details: Homo sapiens
Description: (§14) Two duplicate plates were set up for day 0 reading (T0) and for reading at the end point (T48).
as §5, §6, §7, §8

SNU-5 = test: Cytotoxicity on gastric cancer cell lines, assay similar to Example 1 (Example 4); details: Homo sapiens
Description: as §9, §11

HCC70 = test: Cytotoxicity on breast cancer cell lines, assay similar to Example 3 (Example 4); details: Homo sapiens
Description: as §12, §5, §6, §7, §13

H-EMC-SS = test: Cytotoxicity on chondrosarcoma cell lines, assay similar to Example 1 (Example 4)
Description: as §9, §10

SW1990 = test: Cytotoxicity on pancreatic cancer cell lines, assay similar to Example 1 (Example 4); details: Homo sapiens
Description: as §9, §10

BT-20 = test: Cytotoxicity on breast cancer cell lines, assay similar to Example 3 (Example 4); details: Homo sapiens
Description: as §14, §5, §6, §7, §8

SW1353 = test: Cytotoxicity on chondrosarcoma cell lines, assay similar to Example 1 (Example 4); details: Homo sapiens
Description: as §9, §10

A549 = test: Cytotoxicity on lung cancer cell lines, assay similar to Example 1 (Example 4); details: Homo sapiens
Description: as §9, §10

SUM159PT = test: Cytotoxicity on breast cancer cell lines, assay similar to Example 3 (Example 4); details: Homo sapiens, SUM-159-PT
Description: as §12, §5, §6, §7, §13

HCC1806 = test: as above; details: Homo sapiens
Description: as §12, §5, §6, §7, §13

HCC2935 = test: Cytotoxicity on lung cancer cell lines, assay similar to Example 1 (Example 4); details: Homo sapiens
Description: as §9, §10

OUMS-27 = test: Cytotoxicity on chondrosarcoma cell lines, assay similar to Example 1 (Example 4)
Description: as §9, §10

HCC1937 = test: Cytotoxicity on breast cancer cell lines, assay similar to Example 3 (Example 4); details: Homo sapiens
Description: as §14, §5, §6, §7, §8

SW620 = test: CellTiter-Glo cell viability, 48 h (Examples 1, 2); assay type: cell-based; details: Homo sapiens, SW-620
Description: as §1, §2, §3

MX = test: Cytotoxicity on breast cancer cell lines, assay similar to Example 3 (Example 4)
Description: as §14, §5, §6, §7, §8

SNU-1 = test: Cytotoxicity on gastric cancer cell lines, assay similar to Example 1 (Example 4); details: Homo sapiens, SNU1
Description: as §9, §11

CAL-51 = test: Cytotoxicity on breast cancer cell lines, assay similar to Example 3 (Example 4); details: Homo sapiens
Description: as §4, §5, §6, §7, §8

BT-549 = test: as above; details: Homo sapiens
Description: as §14, §5, §6, §7, §8

NCI-N87 = test: Cytotoxicity on gastric cancer cell lines, assay similar to Example 1 (Example 4); details: Homo sapiens
Description: as §9, §11

Which cytotoxicity at 3.16 µM (HS 578T) does the source give for `CC[C@H](NC(=O)[C@H](C)NC)C(=O)N1C[C@@H](O)C[C@H]1Cc1c(-c2[nH]c3cc(F)ccc3c2C[C@@H]2C[C@H](O)CN2C(=O)[C@H](CC)NC(=O)[C@H](C)NC)[nH]c2cc(F)ccc12` [Birinapant, birinapant] here?
The cytotoxicity at 3.16 µM was 12.7%.

And the cytotoxicity at 5 µM (HT-29)?
Its cytotoxicity at 5 µM is 20.4%.

And the cytotoxicity at 5 µM (LS411N)?
Its cytotoxicity at 5 µM is 14.3%.

What about the cytotoxicity at 5 µM (SNU-C2B) of the same compound?
The cytotoxicity at 5 µM was 71.1%.

And the cytotoxicity at 2 µM (NCI-H2452)?
The cytotoxicity at 2 µM was 6.11%.

And the cytotoxicity at 3.16 µM (HCC1395)?
Its cytotoxicity at 3.16 µM is 8.93%.

And the cytotoxicity at 2 µM (AsPC-1)?
Its cytotoxicity at 2 µM is 9.46%.

And the cytotoxicity at 2 µM (NCI-H23)?
Its cytotoxicity at 2 µM is 9.3%.

And the cytotoxicity at 2 µM (NCI-H460)?
The cytotoxicity at 2 µM was 6.55%.

What about the cytotoxicity at 3.16 µM (HCC1187) of the same compound?
Its cytotoxicity at 3.16 µM is 36%.

And the cytotoxicity at 2 µM (Panc-1)?
Its cytotoxicity at 2 µM is 11.7%.

What about the cytotoxicity at 3.16 µM (DU4475) of the same compound?
Its cytotoxicity at 3.16 µM is 14.3%.

And the cytotoxicity at 2 µM (CAL-78)?
Its cytotoxicity at 2 µM is 14%.

And the cytotoxicity at 2 µM (MIA-PaCa-2)?
Its cytotoxicity at 2 µM is 9.17%.

And the cytotoxicity at 3.16 µM (CAL-120)?
The cytotoxicity at 3.16 µM was 2.75%.

What about the cytotoxicity at 2 µM (SNU-5) of the same compound?
Its cytotoxicity at 2 µM is 59.6%.

And the cytotoxicity at 3.16 µM (HCC70)?
The cytotoxicity at 3.16 µM was 34%.

What about the cytotoxicity at 2 µM (H-EMC-SS) of the same compound?
Its cytotoxicity at 2 µM is 31.1%.

What about the cytotoxicity at 2 µM (SW1990) of the same compound?
The cytotoxicity at 2 µM was 10.4%.

And the cytotoxicity at 3.16 µM (BT-20)?
Its cytotoxicity at 3.16 µM is 6.51%.

And the cytotoxicity at 2 µM (SW1353)?
The cytotoxicity at 2 µM was 0.1%.

What about the cytotoxicity at 2 µM (A549) of the same compound?
The cytotoxicity at 2 µM was 11.3%.

And the cytotoxicity at 3.16 µM (SUM159PT)?
Its cytotoxicity at 3.16 µM is -1.7%.

And the cytotoxicity at 3.16 µM (HCC1806)?
Its cytotoxicity at 3.16 µM is 5.17%.

What about the cytotoxicity at 2 µM (HCC2935) of the same compound?
Its cytotoxicity at 2 µM is 13.9%.

What about the cytotoxicity at 2 µM (OUMS-27) of the same compound?
The cytotoxicity at 2 µM was -0.15%.

And the cytotoxicity at 3.16 µM (HCC1937)?
Its cytotoxicity at 3.16 µM is -2.77%.

What about the cytotoxicity at 5 µM (SW620) of the same compound?
Its cytotoxicity at 5 µM is 11.7%.

What about the cytotoxicity at 3.16 µM (MX) of the same compound?
The cytotoxicity at 3.16 µM was -7.11%.

What about the cytotoxicity at 2 µM (SNU-1) of the same compound?
The cytotoxicity at 2 µM was 7.62%.

What about the cytotoxicity at 3.16 µM (CAL-51) of the same compound?
The cytotoxicity at 3.16 µM was 2.35%.

What about the cytotoxicity at 3.16 µM (BT-549) of the same compound?
The cytotoxicity at 3.16 µM was 6.85%.

What about the cytotoxicity at 2 µM (NCI-N87) of the same compound?
Its cytotoxicity at 2 µM is 1.82%.

Reference: patent US20250302948A1, “DR5 Agonist and IAP Antagonist Combination Therapy” (Inhibrx Biosciences, Inc., priority 2022, published 2025)
